Three molecules from patent publication US10617664B2, “Brain derived PPARα ligands” (Rush University Medical Center, priority 2015, dated 2020) can be followed below.

The target of one experiment is T1, PPARα (Mus musculus, UniProt P23204).
T1 construct: GFP; made in house; host or cells: not clearly stated (lentivirus packaged in HEK293FT cells)
T1 sequence (P23204 1-468): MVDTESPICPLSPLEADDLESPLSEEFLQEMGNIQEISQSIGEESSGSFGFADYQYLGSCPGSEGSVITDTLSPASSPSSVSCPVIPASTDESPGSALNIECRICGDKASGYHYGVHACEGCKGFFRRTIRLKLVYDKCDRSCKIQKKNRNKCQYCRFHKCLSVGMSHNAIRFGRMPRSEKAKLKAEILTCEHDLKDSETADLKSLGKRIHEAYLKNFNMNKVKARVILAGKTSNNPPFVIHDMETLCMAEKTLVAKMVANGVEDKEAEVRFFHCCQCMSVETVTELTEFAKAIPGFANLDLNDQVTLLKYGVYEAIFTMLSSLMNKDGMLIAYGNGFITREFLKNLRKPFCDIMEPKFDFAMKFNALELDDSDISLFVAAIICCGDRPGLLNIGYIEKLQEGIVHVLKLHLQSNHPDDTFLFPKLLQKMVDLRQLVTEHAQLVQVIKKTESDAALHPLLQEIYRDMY
Put plainly: Thermal shift assay, full length PPARα with ligands. The experiment is classed as binding. The conditions noted are these: full length protein with ligand; protein only x=45.96321. As for the experimental part:
Lentivirus-mediated de novo expression studies were performed, where wild type full-length (GFP-FLPpara) was overexpressed and three different LBD-mutated PPARα (GFP-Y314D, GFP-Y464D and GFP-Y314D/Y464D Ppara) recombinant proteins (FIG. 9D) were expressed in neurons followed by binding analyses with three endogenous ligands. Briefly, site directed mutagenesis was performed in the mouse PPARα with Y314 and Y464 residues replaced separately or together with aspartate (D). After that, the entire mouse GFP-Ppara gene (GFP-FLPpara) and three different mutated genes were cloned in the pLenti6/V5-TOPO lentiviral expression vector (FIG. 3D), packaged in lentivirus particle with HEK293FT cells, purified full length and mutated PPARα proteins in a GFP-affinity column, and finally thermal shift assays were performed in order to analyze their conformational stability. […] After 48 h of transduction, the cells were homogenized, passed through GFP-affinity column, eluted, fractionated with chloroform-methanol, and finally analyzed by GC-MS for the detection of ligands. […] On the other hand, mutation of the Y464 completely knocked down the ligand binding affinity as we observed profound loss of ligand binding in both lenti-GFP-Y464D-Ppara (FIG. 3K, FIG. 9K) and lenti-GFP-Y314D/Y464D-Ppara (FIG. 3L, FIG. 9L)-transduced Ppara-null neurons. Throughout these analyses, we used 2,4-bis (α, α-dimethyl benzyl) phenol as an internal standard (Supplementary FIG. 5A-F). We normalized peak area of different ligands with that of internal standard and then quantified the binding affinity of these ligands with different construct of PPARα by peak integration statistics (Table 1).
Thermal shift assays were performed in Applied Biosystems 7500 standard real-time thermal cycler machine with commercially available thermal shift dye kit (Life technologies; Cat #4461146). For each reaction, purified protein (0.5 μg to 1 μg) was added to 18 μL of thermal shift buffer provided with the kit, and 1-2 μL of dye. […]

The subject of experiment [1] is PPRE-driven luciferase activity. Kind of experiment: PPRE-luciferase assay in Ppara-null astrocytes transduced with Ppara constructs. The conditions noted are these: Ppara-null astrocytes (empty vector). The experiment is classed as cell-based, mouse. As to the method: Astrocytes plated at 60-70% confluence were transfected with tk-PPREx3-Luc, a PPRE-dependent luciferase reporter construct. After 24 h of transfection, cells were treated with different concentrations of HEX (FIG. 10A), OCT (FIG. 10B) and HMB (FIG. 10C) for 4 h followed by monitoring luciferase activity. Under similar experimental condition, MTT was performed to understand the effect of these ligands on cell viability (FIG. 10D, HEX; FIG. 10E, OCT; FIG. 10F, HMB). Results are mean±SD of three independent experiments. ^ap<0.001 vs. control. Ppara-null astrocytes were transduced with lentivirions containing empty vector (FIG. 10G), FL-Ppara (FIG. 10H), Y314D-Ppara (FIG. 10I), Y464D-Ppara (FIG. 10J), and Y314D/Y464D-Ppara (FIG. 10K) for 48 h followed by transfection with tk-PPREx3-Luc. After 24 h of transfection, cells were treated with different doses of HEX, OCT and HMB for 4 h followed by monitoring luciferase activity. PPRE luciferase activity was assayed in Ppara-null astrocytes transduced with lentivirions containing empty vector (FIG. 10L), FL-Ppara (FIG. 10M), Y314D-Ppara (FIG. 10N), Y464D-Ppara (FIG. 10O), and Y314D/Y464D-Ppara (FIG. 10P) after treatment with different doses of WY14643, fenofibrate, and clofibrate. PPRE luciferase activity was assayed in primary hippocampal neurons transduced with lentivirions containing empty vector (FIG. 10Q), FL-Ppara (FIG. 10R), Y314D-Ppara (FIG. 10S), Y464D-Ppara (FIG. 10T), and Y314D/Y464D-Ppara (FIG. 10U) after treatment with different doses of HEX, OCT and HMB. Results are mean±SD of three independent experiments. ^ap<0.001 vs. control.

As to `CCCCCCCCC=CCCCCCCCC(N)=O` [OCT, 9-octadecenamide], the “x at y=50 of thermal shift curve (melting temperature)” value (“x at y=50 of thermal shift curve” for short) on PPARα is recorded as 59.6128. Besides, the PPRE-driven luciferase activity entry in experiment [1] was “remained unable to induce”.

Turning to `CCCCCCCCCCCCCCCC(N)=O` [HEX, hexadecanamide], the “x at y=50 of thermal shift curve” value at PPARα is on record as 59.2835. Moreover, the PPRE-driven luciferase activity entry in experiment [1] is given as “remained unable to induce”.

Take `CCOC(=O)C(C)(C)C(C)O` (stereo not drawn) [HMB]: the “x at y=50 of thermal shift curve” value on PPARα came out at 58.49. Also, in experiment [1], the PPRE-driven luciferase activity result is given as “remained unable to induce”.
